Tests used:
[1] = tested on: onset of asthma in young children with atopic dermatitis; assay: 18 month double blind, placebo-controlled study of cetirizine dihydrochloride for preventing the onset of asthma; assay type: in vivo, infants; details: for RR for developing asthma when cetirizine treated: versus placebo
From the text: The aim of the study relative to the clinical effect of cetirizine dihydrochloride was to establish on the intention to treat (ITT population) whether an 18 month cetirizine dihydrochloride treatment can prevent the onset of asthma in young children with atopic dermatitis, when compared to placebo. Subgroups based on the baseline status of biological markers as well as specific asthmatic patients (i.e. wheezers only; asthma onset date at least 3 months after inclusion) were foreseen as well. It was considered that a 30% reduction of the incidence of asthma is clinically relevant. Secondary parameters of efficacy included the severity of asthma and atopic dermatitis.
All the infants had to have at least one parent or sibling with a history of atopic disease (atopic dermatitis, allergic rhinitis or asthma). Excluded were infants with asthma, or with a history of any episodes of wheezing or nocturnal cough as well as any condition likely to obscure the diagnosis of asthma (Guidelines for the diagnosis and management of asthma. National Asthma Education and Prevention Program. Expert Panel Report II. National Institute of Health publication 97-4051; International Report. International consensus report on diagnosis and treatment of asthma. National Heart, Lung and Blood Institute. National Institute of Health publication 92-3091).
The study was a prospective, randomized, double blind, parallel group, and placebo-controlled study with cetirizine dihydrochloride.
Study treatment lasted for 18 months. After the treatment period, patients entered a long-term follow-up period.
The primary end-point for efficacy was the onset of asthma, defined as 3 episodes of nocturnal cough with sleep disturbances or wheezing, separated by at least 7 days, in a clinical setting where asthma is likely and conditions other than allergy have been excluded.
Serum total and specific (grass pollen, cow's milk, egg, house dust mites and cat dander) IgE antibody levels were determined using the Pharmacia CAP® system (Pharmacia & Upjohn, Uppsala, Sweden). These analyses were made at baseline, and after 3, 12 and 18 months of treatment by a central laboratory (Institut Pasteur—Lille, France) according to instructions of the manufacturer and routine clinical laboratory performances.
(§1) Oral solutions of cetirizine dihydrochloride (10 mg/ml) and matching placebo, similar in appearance and taste were used. The recommended study dosage was 0.25 mg cetirizine/kg b.i.d. (b.i.d.=“bis in die”, 2 times a day).
Sample size was based on an expected cumulative incidence of asthma in 40% of children in the placebo group after 18 months of treatment. A decrease of 30% of the incidence was considered as clinically relevant.

[2] = tested on: infants with atopic dermatitis; assay: Adverse events recorded during the 18 month study; assay type: in vivo
Procedure: At each of the nine visits, the atopy status, any concurrent illnesses, concomitant medications and procedures were recorded. Patients underwent a physical examination, including the measurement of vital signs.
Adverse events were recorded by the parents on diary cards and discussed with the investigator at each visit. Serious adverse events had to be reported immediately.
as §1

[3] = subgroup with elevated Eosinophil count at baseline

O=C(O)COCCN1CCN(C(c2ccccc2)c2ccc(Cl)cc2)CC1 (centres unmarked) [Cetirizine]
Occurrence of Asthma by Treatment ([1]; ITT population, 18 months, 0.25 mg/kg b.i.d. oral): (37.7) % | number of children developing asthma ([1]; early treatment initiated between 1 and 2 years of age, atopic dermatitis, sensitized (specific IgE ≧0.35 kUA/l) to grass pollen or house dust mite): halved | prevention of asthma ([1]; infants with atopic dermatitis and evidence of sensitivity to grass pollen or house dust mite): successfully prevents asthma | risk of developing asthma compared with placebo ([1]; infants with raised baseline total IgE (≧30 kU/l) or specific IgE antibodies (≧0.35 kUA/l)): reduced risk of developing asthma | Occurrence of Asthma by Treatment [1, 3]: (42.7) % | Occurrence of Asthma by Treatment ([1]; subgroup with elevated IgE Cat dander (E1) at baseline (≧0.35 kUA/l)): (40.6) % | Occurrence of Asthma by Treatment ([1]; subgroup with elevated IgE Egg (F1) at baseline (≧0.35 kUA/l)): (31.2) % | Occurrence of Asthma by Treatment ([1]; subgroup with elevated IgE Grass pollen (GX1) at baseline (≧0.35 kUA/l)): (27.8) % | Occurrence of Asthma by Treatment ([1]; subgroup with elevated IgE HDM (D1) at baseline (≧0.35 kUA/l)): (28.6) % | Occurrence of Asthma by Treatment ([1]; subgroup with elevated IgE HDM + Grass pollen at baseline (≧0.35 kUA/l)): (34.2) % | Occurrence of Asthma by Treatment ([1]; subgroup with elevated IgE Milk (F2) at baseline (≧0.35 kUA/l)): (30.7) % | Occurrence of Asthma by Treatment ([1]; subgroup with elevated Total IgE (PRIST) at baseline (≧30 kU/l)): (38.1) % | RR for developing asthma when cetirizine treated [1, 3]: 0.9 | RR for developing asthma when cetirizine treated ([1]; subgroup with elevated IgE Cat dander (E1) at baseline): 0.9 | RR for developing asthma when cetirizine treated ([1]; subgroup with elevated IgE Egg (F1) at baseline): 0.8 | RR for developing asthma when cetirizine treated ([1]; subgroup with elevated IgE Grass pollen (GX1) at baseline): 0.5 | RR for developing asthma when cetirizine treated ([1]; subgroup with elevated IgE HDM (D1) at baseline): 0.6 | RR for developing asthma when cetirizine treated ([1]; subgroup with elevated IgE HDM + Grass pollen at baseline): 0.6 | RR for developing asthma when cetirizine treated ([1]; subgroup with elevated IgE Milk (F2) at baseline): 0.7 | RR for developing asthma when cetirizine treated ([1]; subgroup with elevated Total IgE (PRIST) at baseline): 0.9 | safety in infants ([2]; 18 month treatment, large trial in infants): safe product | urticaria (adverse event frequency) ([2]; cetirizine group versus 16.1% placebo, p<0.001): 5.8% | adverse event (AE) profiles between groups ([2]; cetirizine versus placebo, except for urticaria): no significant differences
